What all share (type): in vivo
The subject of data set [1] is LI-Larven von Lucilia sericata. As to the kind of experiment: Action against L1 larvae of Lucilia sericata (larval culture medium, mortality). Conditions: reduced concentration of 100 ppm, after 4 days; for mortality at 100 ppm: Lucilia sericata, 96 h, read-out: Wirkung (Mortalitätsrate). On the procedure: Beispiel B.2: Wirkung gegen LI-Larven von Lucilia sericata
(§1) 1 ml einer wässrigen Suspension der zu prüfenden Aktivsubstanz werden so mit 3 ml eines speziellen Larvenzuchtmediums bei ca. 50°C vermischt, dass ein Homogenisat von wahlweise 250 ppm oder 100 ppm Wirkstoffgehalt entsteht. In jede Reagenzglas-Probe werden ca. 30 Lucilia-Larven (L1) eingesetzt. Nach 4 Tagen wird die Mortalitätsrate bestimmt. Die Verbindungen aus den Herstellungsbeispielen zeigen bei 250 ppm eine Wirkung von 100 %, wobei Verbindungen aus den Herstellungsbeispielen diese Wirkung auch noch bei der reduzierten Wirkstoffkonzentration von 100 ppm erzielen, wie beispielsweise die Verbindungen Nr. 1.10, 1.18, 1.26, 1.34, 1.39, 1.43, 1.46, 1.54, 1.58, 1.62, 1.82, 1.90 und 1.114.

Data set [2] deals with Ll-Larven von Lucilia cuprina. The data set is described as follows: Action against L1 larvae of Lucilia cuprina (as B.2). Conditions: niedrigere Konzentrationen (below 100 ppm). The procedure: as §1
Beispiel B.3: Wirkung gegen Ll-Larven von Lucilia cuprina
Der Test wird wie unter B.2 beschrieben durchgeführt, jedoch mit Larven von Lucilia cuprina. […] Bei manchen Verbindungen wird dieser Effekt bereits mit niedrigeren Konzentrationen erreicht, beispielsweise mit den Verbindungen Nr. 1.34, 1.90 und 1.114.

A further data set concerns Aedes aegypti. As to the kind of experiment: Larvicidal action against Aedes aegypti (larvae in water). Conditions: niedrigere Konzentrationen (below 3 ppm). The procedure: Beispiel B.10: Larvizidwirkung gegen Aedes aegypti
Auf die Oberfläche von 150 ml Wasser, das sich in einem Behälter befindet, wird soviel einer 0,1 %igen acetonischen Lösung des Wirkstoffes pipettiert, dass Konzentrationen von wahlweise 12,5 ppm, 3,3 ppm und 1,6 ppm erhalten werden. Nach Verdunsten des Acetons wird der Behälter mit ca. 30-40 3 Tage alten Aedes-Larven beschickt. Nach 1, 2 und 5 Tagen wird die Mortalität geprüft.

The subject of another data set is Spodoptera littoralis. The data set is described as follows: Insecticidal stomach-poison action on Spodoptera littoralis (sprayed cotton plants). Conditions: niedrigere Konzentrationen (below 12,5 ppm); L1 larvae. On the procedure:
Beispiel B.6: Insektizide Frassgift-Wirkung bei Spodoptera littoralis
Eingetopfte Baumwollpflanzen im 5-Blatt-Stadium werden mit einer acetonisch/wässrigen Versuchslösung besprüht, die 3, 12,5 oder 50 ppm der zu prüfenden Verbindung enthält.
Nach dem Antrocknen des Belags werden die Pflanzen mit ca. 30 Larven (LI-Stadium) von Spodoptera littoralis besetzt. Pro Versuchsverbindung und pro Test-Spezies verwendet man zwei Pflanzen. Der Versuch wird bei ca. 24°C und 60 % relativer Luftfeuchtigkeit durchgeführt. Auswertungen und Zwischenauswertungen auf moribunde Tiere, Wachstum und Larven und Frassschäden erfolgen nach 24 Stunden, 48 Stunden und 72 Stunden.

The test system of data set [3] is OP-sensible Tetranychus urticae. As to the kind of experiment: Action against plant-damaging acarids, OP-sensitive Tetranychus urticae (sprayed bean plants). Conditions: niedrigere Konzentrationen (below 1,6 ppm); after seven days. The procedure:
Beispiel B.7: Wirkung gegen pflanzenschädigende Akariden OP-sensible Tetranychus urticae
Die Primärblätter von Bohnenpflanzen (Phaseolus vulgaris) werden 16 Stunden vor dem Versuch mit einem durch T. urticae infestierten, aus einer Massenzucht stammenden Blattstück belegt. […] Die Temperatur in der Gewächshauskabine beträgt ca. 25°C.
Nach sieben Tagen wird unter dem Binokular auf Prozentsatz mobiler Stadien (Adulte und Nymphen) und auf vorhandene Eier ausgewertet.

Another data set concerns Dermanyssus gallinae. The data set is described as follows: Miticidal action against Dermanyssus gallinae (contact test in glass vessel, mortality). Conditions: geringere Wirkstoffkonzentrationen (below 100 ppm); observed three days; 4320 min. On the procedure:
Beispiel B.1: Milbizide Wirkung gegen Dermanyssus gallinae
2 bis 3 ml einer Testlösung (250, 100 und 10 ppm Aktivsubstanz) werden in einen nach oben offenen Glasbehälter gegeben und ca. 200 Milben in unterschiedlichen Entwicklungsstadien in diesen Behälter eingesetzt. Der Glasbehälter wird mit einem Wattebausch verschlossen und 10 Minuten gleichmässig, bis zur vollständigen [benetzung der Milben geschüttelt. Danach wird der Behälter umgekehrt hingestellt, bis die überschüssige Testlösung von der Watte aufgesogen ist. Der Behälter wird erneut gekehrt und die behandelten Zecken zur Evaluierung der Wirksamkeit der Testsubstanzen drei Tage unter Laborbedingungen beobachtet, wobei die Mortalität als Massstab für Wirksamkeit herangezogen wird.

A further data set relates to Aphis craccivora. The data set is described as follows: Contact action on Aphis craccivora (sprayed pea seedlings). Conditions: niedrigere Konzentrationen (below 25 ppm); after 3 days. The text has this:
Beispiel B.9: Kontaktwirkung auf Aphis craccivora
Erbsenkeimlinge, die mit sämtlichen Entwicklungsstadien der Laus infiziert sind, werden mit einer aus einem Emulsionskonzentrat hergestellten Wirkstofflösung besprüht, die wahlweise 50 ppm, 25 ppm oder 12,5 ppm Wirkstoff enthält. Nach 3 Tagen wird auf mehr als 80 % tote bzw. abgefallene Blattläuse ausgewertet. Nur bei dieser Wirkungshöhe wird ein Präparat als wirksam eingestuft.

Turning to “13ß-(9-Fluorenyl-methoxy)-carbonyloxy-milbemycin A4 [1.114]”, in data set [1], the “Wirkung (Mortalitätsrate)” value is reported as 100%. Also, the “Vernichtung des Schädlings” value in data set [2] was “vollständige Vernichtung”. In addition, the “Abtötung sämtlicher Larven” value in the data set with Aedes aegypti was “vollständige Abtötung”.
For “13β-(Cyclohexyloxycarbonyloxy)-milbemycin A4 [1.82]”, in data set [1], the “Wirkung (Mortalitätsrate)” value came out at 100%. In addition, the Abtötung entry (in the data set on Spodoptera littoralis; in data set [3]) was “vollständige Abtötung” each time. In addition, the “Abtötung sämtlicher Larven” value with Aedes aegypti is “vollständige Abtötung”.
Regarding `CC[C@H]1O[C@]2(CC[C@@H]1C)C[C@@H]1C[C@@H](C/C=C(\C)[C@H](OC(=O)OC)[C@@H](C)/C=C/C=C3\CO[C@@H]4[C@H](O)C(C)=C[C@@H](C(=O)O1)[C@]34O)O2` [1.2, 13ß-(Methoxycarbonyloxy)-milbemycin A4], in the data set on Dermanyssus gallinae, the “Wirkung (Mortalität)” value was found to be 100%. Moreover, the Abtötung in the data set with Aphis craccivora is on record as 100%.
On to `COC(=O)O[C@H]1/C(C)=C/C[C@@H]2C[C@@H](C[C@]3(CC[C@H](C)[C@@H](C(C)C)O3)O2)OC(=O)[C@@H]2C=C(C)[C@@H](O)[C@H]3OC/C(=C\C=C\[C@@H]1C)[C@]32O` [1.3, 13ß-(Methoxycarbonyloxy)-milbemycin D], for which the “Wirkung (Mortalität)” value in the data set with Dermanyssus gallinae turned out to be 100%. The Abtötung result in the data set on Spodoptera littoralis is recorded as “vollständige Abtötung”; in data set [3], “vollständige Abtötung”; with Aphis craccivora, 100%.
Turning to `CC[C@H]1O[C@]2(CC[C@@H]1C)C[C@@H]1C[C@@H](C/C=C(\C)[C@H](OC(=O)OC(C)C)[C@@H](C)/C=C/C=C3\CO[C@@H]4[C@H](O)C(C)=C[C@@H](C(=O)O1)[C@]34O)O2` [1.10, 13ß-Isopropyloxycarbonyloxy-milbemycin A4], in the data set on Dermanyssus gallinae, the “Wirkung (Mortalität)” value worked out at 100%. Further, the mortality at 100 ppm in data set [1] came to 100%. Moreover, the figures for the Abtötung result (in the data set on Spodoptera littoralis; in data set [3]; with Aphis craccivora) were “vollständige Abtötung”, “vollständige Abtötung” and 100%, respectively. The “Abtötung sämtlicher Larven” value with Aedes aegypti is “vollständige Abtötung”.
As for `CC[C@H]1O[C@]2(CC[C@@H]1C)C[C@@H]1C[C@@H](C/C=C(\C)[C@H](OC(=O)OCCBr)[C@@H](C)/C=C/C=C3\CO[C@@H]4[C@H](O)C(C)=C[C@@H](C(=O)O1)[C@]34O)O2` [1.18, 13ß-(2-Bromäthoxy)-carbonyloxy-milbemycin A4], in the data set with Dermanyssus gallinae, the “Wirkung (Mortalität)” value stood at 100%. The mortality at 100 ppm in data set [1] amounted to 100%.
As for `CC[C@H]1O[C@]2(CC[C@@H]1C)C[C@@H]1C[C@@H](C/C=C(\C)[C@H](OC(=O)OCC(Cl)(Cl)Cl)[C@@H](C)/C=C/C=C3\CO[C@@H]4[C@H](O)C(C)=C[C@@H](C(=O)O1)[C@]34O)O2` [1.26, 13ß-[(2,2,2-Trichlorethoxy)-carbonyloxy]-milbemycin A4], the mortality at 100 ppm in data set [1] worked out at 100%. In addition, the Abtötung result with Spodoptera littoralis is listed as “vollständige Abtötung”. The “Abtötung sämtlicher Larven” value in the data set on Aedes aegypti is reported as “vollständige Abtötung”.
`CC[C@H]1O[C@]2(CC[C@@H]1C)C[C@@H]1C[C@@H](C/C=C(\C)[C@H](OC(=O)OC(C)(C)C(Cl)(Cl)Cl)[C@@H](C)/C=C/C=C3\CO[C@@H]4[C@H](O)C(C)=C[C@@H](C(=O)O1)[C@]34O)O2` [1.34, 13ß-[(1,1-Dimethyl-2,2,2-trichlorethoxy)-carbonyloxy]-milbemycin A4]: the mortality at 100 ppm in data set [1] came to 100%. In addition, in data set [2], the “Vernichtung des Schädlings” value is on record as “vollständige Vernichtung”. Further, the Abtötung entry in the data set on Spodoptera littoralis is “vollständige Abtötung”; in data set [3], “vollständige Abtötung”; in the data set with Aphis craccivora, 100%. Moreover, the “Abtötung sämtlicher Larven” value in the data set on Aedes aegypti is recorded as “vollständige Abtötung”.
Take `C=COC(=O)O[C@H]1/C(C)=C/C[C@@H]2C[C@@H](C[C@]3(CC[C@H](C)[C@@H](C(C)C)O3)O2)OC(=O)[C@@H]2C=C(C)[C@@H](O)[C@H]3OC/C(=C\C=C\[C@@H]1C)[C@]32O` [1.39, 13ß-(Vinyloxycarbonyloxy)-milbemycin D]: the “Wirkung (Mortalität)” value with Dermanyssus gallinae is given as 100%. In data set [1], the mortality at 100 ppm was determined as 100%. Moreover, in the data set with Aphis craccivora, the Abtötung amounted to 100%.
Regarding `C=CCOC(=O)O[C@H]1/C(C)=C/C[C@@H]2C[C@@H](C[C@]3(CC[C@H](C)[C@@H](C(C)C)O3)O2)OC(=O)[C@@H]2C=C(C)[C@@H](O)[C@H]3OC/C(=C\C=C\[C@@H]1C)[C@]32O` [1.43, 13β-(Allyloxycarbonyloxy)-milbemycin D], the “Wirkung (Mortalität)” value in the data set with Dermanyssus gallinae is reported as 100%. Besides, in data set [1], the mortality at 100 ppm was found to be 100%. The same compound showed an Abtötung with Aphis craccivora of 100%.
As to `CC[C@H]1O[C@]2(CC[C@@H]1C)C[C@@H]1C[C@@H](C/C=C(\C)[C@H](OC(=O)OCc3ccccc3)[C@@H](C)/C=C/C=C3\CO[C@@H]4[C@H](O)C(C)=C[C@@H](C(=O)O1)[C@]34O)O2` [1.46, 13β-Benzyloxycarbonyloxy-milbemycin A4], in the data set with Dermanyssus gallinae, the “Wirkung (Mortalität)” value is on record as 100%. Also, the mortality at 100 ppm in data set [1] was determined as 100%.
On to `CC[C@H]1O[C@]2(CC[C@@H]1C)C[C@@H]1C[C@@H](C/C=C(\C)[C@H](OC(=O)Oc3ccccc3)[C@@H](C)/C=C/C=C3\CO[C@@H]4[C@H](O)C(C)=C[C@@H](C(=O)O1)[C@]34O)O2` [1.54, 13ß-Phenoxycarbonyloxy-milbemycin A4], for which the mortality at 100 ppm in data set [1] came to 100%. Further, the Abtötung result is “vollständige Abtötung” with Spodoptera littoralis and 100% in the data set with Aphis craccivora. The “Abtötung sämtlicher Larven” value with Aedes aegypti was “vollständige Abtötung”.
For `CC[C@H]1O[C@]2(CC[C@@H]1C)C[C@@H]1C[C@@H](C/C=C(\C)[C@H](OC(=O)Oc3ccc([N+](=O)[O-])cc3)[C@@H](C)/C=C/C=C3\CO[C@@H]4[C@H](O)C(C)=C[C@@H](C(=O)O1)[C@]34O)O2` [1.58, 13ß-(4-Nitrophenoxy)-carbonyloxy-milbemycin A4], the mortality at 100 ppm in data set [1] worked out at 100%. The “Abtötung sämtlicher Larven” value in the data set on Aedes aegypti is reported as “vollständige Abtötung”.
`CC[C@H]1O[C@]2(CC[C@@H]1C)C[C@@H]1C[C@@H](C/C=C(\C)[C@H](OC(=O)Oc3ccc(C(=O)OC)cc3)[C@@H](C)/C=C/C=C3\CO[C@@H]4[C@H](O)C(C)=C[C@@H](C(=O)O1)[C@]34O)O2` [1.62, 13ß-(4-Methoxycarbonylphenoxy)-carbonyloxy-milbemycin A4]: the mortality at 100 ppm in data set [1] stood at 100%. Further, in the data set on Aedes aegypti, the “Abtötung sämtlicher Larven” value is recorded as “vollständige Abtötung”.
Regarding `CC[C@H]1O[C@]2(CC[C@@H]1C)C[C@@H]1C[C@@H](C/C=C(\C)[C@H](OC(=O)OCC(Cl)(Cl)C(F)(F)F)[C@@H](C)/C=C/C=C3\CO[C@@H]4[C@H](O)C(C)=C[C@@H](C(=O)O1)[C@]34O)O2` [1.98, 13ß-(3,3,3-Trifluor-2,2-dichlor-propyloxy)-carbonyloxy-milbemycin A4], the Abtötung entry (in the data set on Spodoptera littoralis; in data set [3]) was “vollständige Abtötung” each time. In addition, in the data set on Aedes aegypti, the “Abtötung sämtlicher Larven” value is on record as “vollständige Abtötung”.
